Laboratory results published in ChEMBL document CHEMBL5512601, “Small-molecule inhibitors targeting apoptosis signal-regulated kinase 1” (Eur J Med Chem, 2023).
pEC50, pIC50: −log10 of the molar value. Each block holds one molecule with its values, some of them ahead of it.

How the values were obtained:
[1] = target: T1, Mitogen-activated protein kinase kinase kinase 5 (Homo sapiens, UniProt Q99683); experiment: Inhibition of ASK1 (unknown origin) incubated for 0.5 to 5 hrs by TR-FRET assay
T1 sequence (Q99683 whole entry): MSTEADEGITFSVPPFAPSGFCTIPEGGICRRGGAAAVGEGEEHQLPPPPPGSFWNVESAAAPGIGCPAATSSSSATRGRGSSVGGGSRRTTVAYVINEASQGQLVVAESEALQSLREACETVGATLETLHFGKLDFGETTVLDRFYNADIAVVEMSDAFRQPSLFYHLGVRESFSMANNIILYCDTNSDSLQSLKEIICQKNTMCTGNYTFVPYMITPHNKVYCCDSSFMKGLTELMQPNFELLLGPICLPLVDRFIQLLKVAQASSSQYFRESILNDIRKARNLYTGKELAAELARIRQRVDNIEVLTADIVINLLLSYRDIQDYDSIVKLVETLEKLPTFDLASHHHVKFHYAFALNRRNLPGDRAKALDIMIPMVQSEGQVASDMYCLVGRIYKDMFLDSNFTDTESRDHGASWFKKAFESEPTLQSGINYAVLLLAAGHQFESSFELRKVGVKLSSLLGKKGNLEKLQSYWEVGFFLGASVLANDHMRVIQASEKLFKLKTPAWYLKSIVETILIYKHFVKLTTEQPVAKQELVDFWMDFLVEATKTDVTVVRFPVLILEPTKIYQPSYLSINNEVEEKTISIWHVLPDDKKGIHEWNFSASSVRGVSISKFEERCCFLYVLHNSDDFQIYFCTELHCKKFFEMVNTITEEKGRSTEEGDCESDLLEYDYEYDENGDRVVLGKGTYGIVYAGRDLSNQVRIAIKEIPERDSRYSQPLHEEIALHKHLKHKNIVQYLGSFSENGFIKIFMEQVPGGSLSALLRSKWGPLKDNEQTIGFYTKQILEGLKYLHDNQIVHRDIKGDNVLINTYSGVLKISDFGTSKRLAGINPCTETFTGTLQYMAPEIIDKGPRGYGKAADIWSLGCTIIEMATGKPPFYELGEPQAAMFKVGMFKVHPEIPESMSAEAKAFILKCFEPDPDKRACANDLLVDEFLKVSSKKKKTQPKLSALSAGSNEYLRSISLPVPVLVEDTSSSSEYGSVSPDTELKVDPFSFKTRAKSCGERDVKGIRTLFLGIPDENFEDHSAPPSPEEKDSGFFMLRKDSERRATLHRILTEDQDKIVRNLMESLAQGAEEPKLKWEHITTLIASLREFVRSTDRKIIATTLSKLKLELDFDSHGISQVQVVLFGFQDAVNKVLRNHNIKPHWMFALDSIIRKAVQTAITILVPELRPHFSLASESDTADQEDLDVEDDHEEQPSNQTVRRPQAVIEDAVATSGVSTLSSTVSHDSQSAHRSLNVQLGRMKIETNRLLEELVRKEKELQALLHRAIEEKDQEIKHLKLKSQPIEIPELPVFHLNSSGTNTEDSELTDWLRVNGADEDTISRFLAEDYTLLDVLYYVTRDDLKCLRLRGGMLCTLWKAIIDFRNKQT

[2] = target: T1, Mitogen-activated protein kinase kinase kinase 5; experiment: Inhibition of ASK1 (unknown origin)
[3] = target: T1, Mitogen-activated protein kinase kinase kinase 5; experiment: Inhibition of human recombinant ASK1 by HTRF assay
[4] = target: T1, Mitogen-activated protein kinase kinase kinase 5; experiment: Inhibition of human ASK1 using STK-substrate biotin as substrate by TR-FRET assay
[5] = target: T1, Mitogen-activated protein kinase kinase kinase 5; experiment: Inhibition of N-terminal his-tagged human ASK1 (649 to 946 residues) expressed in Escherichia coli using [gamma-32p]ATP as substrate by liquid scintillation counting analysis
[6] = target: T1, Mitogen-activated protein kinase kinase kinase 5; experiment: Inhibition of full length GST-tagged recombinant human ASK1 using MBP as substrate incubated for 20 mins by cell based assay
[7] = target: T1, Mitogen-activated protein kinase kinase kinase 5; experiment: Inhibition of ASK1 (unknown origin) preincubated with compound for 30 mins followed by ATP addition and measured after 120 mins by HTRF analysis
[8] = Cmax in rat 5 mg/kg, po measured upto 24 hrs by LC-MS/MS analysis; type: ADME, organism-based; settings: in vivo
[9] = AUC (0 to t) in rat 5 mg/kg, po measured upto 24 hrs by LC-MS/MS analysis; type: ADME, organism-based; settings: in vivo
[10] = Half life in rat 5 mg/kg, po measured upto 24 hrs by LC-MS/MS analysis; type: ADME, organism-based; settings: in vivo
[11] = target: 3-phosphoinositide-dependent protein kinase 1 (Homo sapiens) (UniProt O15530); experiment: Inhibition of PDK1 (unknown origin) at 10 uM relative to control
Sequence of 3-phosphoinositide-dependent protein kinase 1 (Homo sapiens) (O15530 whole entry, looked up): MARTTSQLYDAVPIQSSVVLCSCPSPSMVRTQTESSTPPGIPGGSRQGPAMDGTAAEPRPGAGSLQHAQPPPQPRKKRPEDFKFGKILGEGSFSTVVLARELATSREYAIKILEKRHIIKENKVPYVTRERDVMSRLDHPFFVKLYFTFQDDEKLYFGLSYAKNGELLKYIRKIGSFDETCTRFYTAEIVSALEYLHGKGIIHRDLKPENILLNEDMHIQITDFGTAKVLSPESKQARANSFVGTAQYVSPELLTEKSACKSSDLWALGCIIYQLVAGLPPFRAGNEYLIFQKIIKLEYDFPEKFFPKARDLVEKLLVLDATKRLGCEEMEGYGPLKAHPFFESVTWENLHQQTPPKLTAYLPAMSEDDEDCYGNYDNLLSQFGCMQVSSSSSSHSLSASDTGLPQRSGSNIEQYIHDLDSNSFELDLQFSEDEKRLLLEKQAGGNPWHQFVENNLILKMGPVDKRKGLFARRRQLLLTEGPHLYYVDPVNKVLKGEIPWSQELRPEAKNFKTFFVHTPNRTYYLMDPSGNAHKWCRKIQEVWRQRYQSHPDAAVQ

pIC50 [1]: 7.32
SMILES: Cc1cc(F)c(C(=O)Nc2cccc(-c3nnc4n3CCNC4)n2)cc1-n1cnc(C2CC2)c1

pIC50 [2]: 8.75
SMILES: CC(C)n1cnnc1-c1cccc(N2Cc3cc(-n4cnc(C5CC5)c4)ccc3C2=O)n1

pIC50 [1]: 7.85
SMILES: Cc1cc(F)c(C(=O)Nc2cccc(-c3nnc4ncncn34)n2)cc1-n1cnc(C2CC2)c1

pIC50 [1]: 8.17
SMILES: Cc1cc(F)c(C(=O)Nc2cccc(-c3nnc4[nH]ccn34)n2)cc1-n1cnc(C2CC2)c1

pIC50 [1]: 8.39
SMILES: Cc1cc(F)c(C(=O)Nc2cccc(-c3nnc4sccn34)n2)cc1-n1cnc(C2CC2)c1

pIC50 [1]: 8.21
SMILES: Cc1cc(F)c(C(=O)Nc2cccc(-c3nnc4n3CCOC4)n2)cc1-n1cnc(C2CC2)c1

pIC50 [3]: 7.30
pEC50 [4]: ≥ 6.30
SMILES: Cc1ccc(-n2ccn(-c3cccc(-c4nncn4C(C)C)n3)c2=O)c(F)c1

pIC50 [7]: 9.05
SMILES: CC(C)n1cnnc1-c1cccc(-n2ncc3ccc(-n4cnc(C5CC5)c4)cc3c2=O)n1

Cmax [8]: 8.19 µg/mL
AUC(0-t) at 24 h [9]: 19.2 µg·h/mL
half-life [10]: 1.3 h
pIC50 [1]: 8.41
SMILES: Cc1cc2c(cc1-n1cnc(C3CC3)c1)C(=O)N(c1cccc(-c3nncn3C(C)C)n1)C2

pIC50 [7]: 8.86
SMILES: CC(C)n1cnnc1-c1cccc(-c2cn(C)c3ccc(-n4cnc(C5CC5)c4)cc3c2=O)n1

pIC50 [1]: 8.11
SMILES: Cc1cc(F)c(C(=O)Nc2cccc(-c3nnc4ccccn34)n2)cc1-n1cnc(C2CC2)c1

inhibition [11]: 0.04%
SMILES: CC(C)n1cnnc1-c1cccc(NC(=O)c2cc(-n3cnc(C4CC4)c3)ccn2)c1

pIC50 [7]: 8.94
SMILES: CC(C)n1cnnc1-c1cccc(-c2coc3ccc(-n4cnc(C5CC5)c4)cc3c2=O)n1

Further lines, the molecule ahead of its results:

SMILES: CC(C)n1cnnc1-c1cccc(NC(=S)Nc2ccccn2)n1
pIC50 [3]: 7.30
pEC50 [4]: ≥ 6.30

SMILES: C=C(C)[C@@H]1CC[C@]2(C(=O)O)CC[C@]3(C)[C@H](C[C@H]4OC(=O)C[C@@H](O)[C@]5(C)[C@@H]4[C@@]3(C)CC[C@H]5C(=C)C)[C@@H]12
pIC50 [5]: 6.43

SMILES: Cc1ccc(NC(=O)Nc2cccc(-c3nncn3C(C)C)n2)c(F)c1
pEC50 [4]: ≥ 6.30

SMILES: Cc1cc(F)c(C(=O)Nc2cccc(-c3nnc4n3CCCC4)n2)cc1-n1cnc(C2CC2)n1
pIC50 [6]: ≥ 7.00

SMILES: CC(C)n1cnnc1-c1cccc(NC(=O)c2cc3c(cc2F)CNCc2nc(C4CC4)cn2-3)n1
pIC50 [2]: > 8.00

SMILES: C=C(C)[C@@H]1CC[C@]2(C(=O)N(CCOCCOn3nnc4ccccc43)C(=O)OC(C)(C)C)CC[C@]3(C)[C@H](C[C@H]4OC(=O)C[C@@H](O)[C@]5(C)[C@@H]4[C@@]3(C)CC[C@H]5C(=C)C)[C@@H]12
pIC50 [5]: 8.69

SMILES: C=C(C)[C@@H]1CC[C@]2(C(=O)On3nnc4ccccc43)CC[C@]3(C)[C@H](C[C@@H](O)[C@@H]4[C@@]5(C)C(CC(=O)OCC)OC(C)(C)C5CC[C@]43C)[C@@H]12 (some centres not stated)
pIC50 [5]: 8.29

SMILES: CC(C)n1cnnc1-c1nc(NC(=O)c2cc3c(cc2F)C(=O)NCc2nc(C4CC4)cn2-3)cs1
pIC50 [2]: < 7.30

SMILES: CC(C)n1cnnc1-c1nc(NC(=O)c2cc3c(cc2F)CNCc2nc(C4CC4)cn2-3)cs1
pIC50 [2]: < 7.30

SMILES: Cc1ccc(-c2cnc(-c3cccc(-c4nncn4C(C)C)n3)s2)c(F)c1
pIC50 [3]: 7.30

SMILES: Cc1cc(F)c(C(=O)Nc2cccc(-c3nnc4n3CCCC4)n2)cc1-n1cc(C2CC2)nn1
pIC50 [6]: < 7.00

SMILES: C=C(C)[C@@H]1CC[C@]2(C(=O)O)CC[C@]3(C)[C@H](C[C@@H](O)[C@@H]4[C@@]5(C)C(CC(=O)O)OC(C)(C)C5CC[C@]43C)[C@@H]12 (some centres not stated)
pIC50 [5]: 6.35

SMILES: CC(C)n1cnnc1-c1cccc(NC(=O)c2cc3c(cc2F)CNCc2c(C4CC4)ncn2-3)n1
pIC50 [2]: > 8.00

SMILES: C=C(C)[C@@H]1CC[C@]2(C(=O)O)CC[C@]3(C)[C@H](C[C@@H](O)[C@@H]4[C@@](C)([C@H](O)CC(=O)O)[C@H](C(=C)C)CC[C@]43C)[C@@H]12
pIC50 [5]: 6.39
